Where a SMILES comes first, the peptide text is derived from it.
Assays:
[1] = tested on: SKHep1/Mock; assay: 51Cr release assay of peptide-induced CTLs against SKHep1/Mock; assay type: cell-based, human; conditions: mock-transfected SKHep1
Protocol: (§1) A lentiviral vector-mediated gene transfer was performed as described previously (Imai K, et al. Clin Cancer Res 2008; 14:6487-95, Tahara-Hanaoka S, et al. Exp Hematol 2002; 30:11-7). Briefly, 17 micro-g of CSII-CMV-RfA and CSIIEF-RfA self-inactivating vectors (Miyoshi H, et al. J Virol 1998; 72: 8150-7) carrying RAB6KIFL cDNAs and 10 micro-g of pCMV-VSV-G-RSV-Rev and pCAG-HIVgp were transfected into the 293T cells grown in a 10-cm culture dish using Lipofectamine 2000 reagent (Invitrogen Corporation, Carlsbad, Calif., USA). After 60 hr of transfection, the medium was recovered and the viral particles were pelleted by ultra-centrifugation (50,000×g, 2 hr). The pellet was suspended in 50 micro-L of RPMI 1640 medium and 10 micro-L of viral suspension was added to 5×10^4 SKHep1 cells, per well in a flat-bottom 96-well plate. The expression of the transfected RAB6KIFL gene was confirmed by a Western blot analysis.
(§2) Human RAB6KIFL-derived peptides (purity>95%), carrying binding motifs for HLA-A2 (A*0201)-encoded molecules, were selected using the BIMAS software program (BioInformatics and Molecular Analysis Section, Center for Information Technology, NIH, Bethesda, Md.) and 36 peptides were synthesized (American Peptide Company, CA, USA) (Tables 1A and B). Monocyte-derived DCs were used as antigen-presenting cells to induce CTL responses against peptides presented in the context of HLA. DCs were generated in vitro culture as described previously (Yoshitake Y, et al. Clin Cancer Res 2004; 10:6437-48, Harao M, et al. Int J Cancer 2008; in press, Imai K, et al. Clin Cancer Res 2008; in press). Briefly, PBMCs isolated from a normal volunteer positive for HLA-A2 using Ficoll-Plaque (GE Healthcare UK, Ltd., Buckinghamshire, UK) solution were sorted to CD8^+ population and CD14^+ population with microbeads (Miltenyi Biotec, Bergisch Gladbach, Germany). […]

[2] = tested on: T2 cells; assay: Induction of human CTLs from PBMCs, 51Cr release assay against peptide-pulsed T2 cells; assay type: cell-based; conditions: CTLs from PBMCs of two HLA-A2-positive healthy donors, three stimulations with peptide-pulsed DCs
Text: as §2, with “Germany). To generate DCs, the CD14^+ population was cultured in the presence of 100 ng/mL granulocyte-macrophage colony-stimulating factor (GM-CSF; PeproTec Inc., NJ, USA) and 10 ng/mL interleukin (IL)-4 (PeproTec) in AIM-V (Invitrogen) containing 2% heat-inactivated autologous plasma. After 5 days of culture, OK-432 was added into the dish to make the DCs mature.” for “Germany).”
(§3) The CTLs were cocultured with each of the cancer cells, or the peptide-pulsed T2 cells, as a target cell (5×10^3/well) at the indicated effector/target ratio and a standard ^51Cr release assay was done as described previously (Yoshitake Y, et al. Clin Cancer Res 2004; 10:6437-48. Imai K, et al. Clin Cancer Res 2008; in press). […] After 6 h incubation, 50 micro L of the supernatant was collected from each well and the radioactivity was quantified using a gamma counter. The specific cytotoxicity was evaluated by calculating the percentage of specific ^51Cr release. […]

[3] = tested on: SKHep1/RAB6KIFL; assay: 51Cr release assay of peptide-induced CTLs against SKHep1/RAB6KIFL; assay type: cell-based, human; conditions: SKHep1 transfected with RAB6KIFL gene (RAB6KIFL high, HLA-A2+)
Protocol: as §1, §2

[4] = tested on: CaCo-2; assay: 51Cr release assay of peptide-induced CTLs against CaCo-2; assay type: cell-based, human; conditions: CaCo-2 (RAB6KIFL+, HLA-A2+); healthy donors
Text: as §2, with “Germany). To generate DCs, the CD14^+ population was cultured in the presence of 100 ng/mL granulocyte-macrophage colony-stimulating factor (GM-CSF; PeproTec Inc., NJ, USA) and 10 ng/mL interleukin (IL)-4 (PeproTec) in AIM-V (Invitrogen) containing 2% heat-inactivated autologous plasma. After 5 days of culture, OK-432 was added into the dish to make the DCs mature.” for “Germany).”
as §3

[5] = tested on: PANC1; assay: 51Cr release assay of peptide-induced CTLs against PANC1; assay type: cell-based, human; conditions: PANC1 (RAB6KIFL+, HLA-A2+); healthy donors
Text: as §2, with “Germany). To generate DCs, the CD14^+ population was cultured in the presence of 100 ng/mL granulocyte-macrophage colony-stimulating factor (GM-CSF; PeproTec Inc., NJ, USA) and 10 ng/mL interleukin (IL)-4 (PeproTec) in AIM-V (Invitrogen) containing 2% heat-inactivated autologous plasma. After 5 days of culture, OK-432 was added into the dish to make the DCs mature.” for “Germany).”
as §3

[6] = tested on: cancer cells expressing both RAB6KIFL and HLA-A2; assay: Comparison of the cytotoxicity of CTLs induced by the three peptides; assay type: cell-based, human; conditions: vs RAB6KIFL-A2-9-12 and RAB6KIFL-A2-10-284
Protocol: The CTLs were cocultured with each of the cancer cells, or the peptide-pulsed T2 cells, as a target cell (5×10^3/well) at the indicated effector/target ratio and a standard ^51Cr release assay was done as described previously (Yoshitake Y, et al. Clin Cancer Res 2004; 10:6437-48. Imai K, et al. Clin Cancer Res 2008; in press). Briefly, target cells were labeled with 3.7 KBq […] (Perkin Elmer Life Sciences) for 1 h at 37 degree C. in a CO2 incubator. Labeled target cells were rinsed three times, and peptide-pulsed target cells were prepared by incubating the cells with 20 micro g/mL peptide for 3 h at 37 degrees C. Target cells were mixed with effector cells in final volume of 200 micro L in flat-bottomed microtiter plates and incubated. After 6 h incubation, 50 micro L of the supernatant was collected from each well and the radioactivity was quantified using a gamma counter. The specific cytotoxicity was evaluated by calculating the percentage of specific ^51Cr release.
The potential of RAB6KIFL as an immunotherapeutic target was verified herein by identifying the HLA-A2-restricted epitope peptides and evaluating their immunogenicity. […]

[7] = tested on: HLA-A2 (HHD) Tgm; assay: Autoimmune phenomenon after peptide vaccination: immunohistochemistry with anti-CD4/anti-CD8 mAb and observation; assay type: in vivo, mouse
Protocol: Western blotting and immunohistochemical staining of RAB6KIFL protein were performed as described previously (Nakatsura T, et al. Biochem Biophys Res Commun 2001; 281:936-44. Yoshitake Y, et al. Clin Cancer Res 2004; 10:6437-48). For Western blotting analyses of human normal tissues, a pre-made human adult normal tissue blot (Biochain, Hayward, Calif.) was used. The primary antibodies used herein, anti-RAB6KIFL polyclonal antibody, and monoclonal anti-b-actin antibody, were purchased from Bethyl Laboratories, Inc. (Montgomery, Tex., USA) and Sigma (Steinheim, Germany), respectively. Immunohistochemical staining of CD4 or CD8 in tissue specimens of HLA-A2.1 (HHD) Tgm immunized with the RAB6KIFL-A2-10-284 peptide was done as described previously (Matsuyoshi H, et al. 2004; 172:776-86).
It is very important to investigate whether the immunization with RAB6KIFL peptide induce an autoimmune reaction or not. We thus performed the immunohistochemical analysis of several vital organs with anti-CD4 and anti-CD8 mAb in HLA-A2 (HHD) Tgm after two-times vaccination with RAB6KIFL-A2-9-809 peptide, of which amino-acid sequences were completely conserved between human and mouse RAB6KIFL. […] The abnormalities frequently observed in mice affected with autoimmune diseases such as abnormal hair and skin, diarrhea and weight loss were also not observed in these mice.

Row | SMILES | cytotoxicity of peptide-induced CTLs against SKHep1/Mock [1] | cytotoxic activity of induced CTLs to T2 cells pulsed with the peptide [2] | cytotoxicity of peptide-induced CTLs against SKHep1/RAB6KIFL [3] | cytotoxicity of peptide-stimulated CTLs to CaCo-2 [4] | cytotoxicity of peptide-stimulated CTLs to PANC1 [5] | cytotoxicity of peptide-induced CTLs compared with CTLs induced by the other two peptides [6] | pathologic change (lymphocyte infiltration or tissue destruction suggesting autoimmunity) in vital organs ([7]; after two-times vaccination, anti-CD4 and anti-CD8 staining) | abnormalities of autoimmune disease (abnormal hair and skin, diarrhea, weight loss) ([7]; mouse, in vivo)
1 | CC(C)C[C@H](NC(=O)[C@@H](N)CC(C)C)C(=O)N[C@@H](CO)C(=O)N[C@@H](CC(=O)O)C(=O)N[C@@H](CC(=O)O)C(=O)N[C@@H](CC(=O)O)C(=O)N[C@H](C(=O)N[C@H](C(=O)N[C@H](C(=O)O)C(C)C)C(C)C)C(C)C [RAB6KIFL-A2-9-12, LLSDDDVVV] (H-LLSDDDVVV-OH; N-terminus and C-terminus assumed) | but not against SKHep1/Mock | exhibited cytotoxic activity | exhibited cytotoxicity | exhibited cytotoxicity | exhibited cytotoxicity |  |  | 
2 | CC[C@H](C)[C@H](NC(=O)[C@@H](N)CS)C(=O)N[C@@H](C)C(=O)N[C@@H](CCC(=O)O)C(=O)N[C@@H](CCC(N)=O)C(=O)N[C@@H](Cc1ccc(O)cc1)C(=O)N[C@@H](Cc1c[nH]cn1)C(=O)N[C@H](C(=O)N[C@H](C(=O)O)C(C)C)[C@@H](C)O [RAB6KIFL-A2-9-809, CIAEQYHTV] (H-CIAEQYHTV-OH; N-terminus and C-terminus assumed) | but not against SKHep1/Mock | exhibited cytotoxic activity | exhibited cytotoxicity | exhibited cytotoxicity | exhibited cytotoxicity | stronger cytotoxicity | no pathologic change | not observed
3 | CC(C)C[C@H](NC(=O)[C@@H]1CCCN1C(=O)[C@H](C)NC(=O)[C@@H](NC(=O)[C@H](CC(=O)O)NC(=O)[C@@H]1CCCN1C(=O)[C@H](CCC(N)=O)NC(=O)[C@H](C)N)[C@@H](C)O)C(=O)N1CCC[C@H]1C(=O)N[C@H](C(=O)O)C(C)C [RAB6KIFL-A2-10-284, AQPDTAPLPV] (H-AQPDTAPLPV-OH; N-terminus and C-terminus assumed) | but not against SKHep1/Mock | exhibited cytotoxic activity | exhibited cytotoxicity | exhibited cytotoxicity | exhibited cytotoxicity |  |  | 
